# Patent US11819257B2, “Compositions, treatment systems and methods for improved cooling of lipid-rich tissue” (Zeltiq Aesthetics, Inc., priority 2014, dated 2023)
# System: skin at abdominal treatment sites
# Assay: Clinical detection of freeze events during abdominal CoolSculpting cooling treatment after pre-treatment with cryoprotectant and mechanical stimulation
# Format: in vivo, human
# Conditions: patients, 14 total cycles at −15° C. applicator set point, 60 minute cycle, 3 cc topical, brushed for 2 minutes before cooling
# From the text: This section describes an example of the clinical use of pre-treating the skin of a patient at a treatment site with mechanical stimulation in the presence of topically applied cryoprotectant prior to applying cooling treatment for affecting subcutaneous lipid-rich cells. Additional embodiments of the present technology may be practiced with features similar to or different than those described with respect to this example. Among other features of the present technology, this example illustrates that mechanical stimulation in the presence of cryoprotectant prior to cooling treatment may have utility in the prevention of freezing events or damage when cooling subcutaneous lipid-rich tissue for aesthetic or health-related reasons. Thirteen patients scheduled for abdominoplasty where offered to undergo a CoolSculpting® treatment on abdominal treatment sites. Each patient underwent two CoolSculpting® treatment sessions having a 60 minute cycle time and a −15° C. applicator temperature set point. The vacuum was set at 60 per typical recommended settings and a standard CoolSculpting® gel pad and liner were used per instructions. Six patients were assigned to a control group and had no pre-treatment performed prior to the CoolSculpting® treatment. […] Freeze events were detected using a freeze detection algorithm such as that described in U.S. Pat. No. 8,285,390.
compound,measurement,setting,value
"CC(O)CO (centres unmarked) [100% PG, propylene glycol]",Probability of Freeze Event,,0%
same,Freeze Events,freeze detection algorithm,0
